# Earlier results in patent publication US20090318549A1, “COMBINATION TREATMENT OF GLAUCOMA” (QLT Plug Delivery, Inc., priority 2008, published 2009).
# Columns and labels:
# [1] = man, after topical administration
smiles,measurement,setting,value
"CC(C)OC(=O)CCC/C=C\C[C@@H]1[C@@H](CC[C@@H](O)CCc2ccccc2)[C@H](O)C[C@@H]1O [Latanoprost, isopropyl-(Z)-7[(1R,2R,3R,5S)3,5-dihydroxy-2-[(3R)-3-hydroxy-5-phenylpentyl]cyclopentyl]-5-heptenoate]","solubility in acetone, ethanol, ethyl acetate, isopropanol, methanol and octanol","acetone, ethanol, ethyl acetate, isopropanol, methanol, octanol",freely soluble
same,solubility in acetonitrile,acetonitrile,very soluble
same,solubility in water,water,practically insoluble
same,time at which the peak concentration in the aqueous humor is reached,[1],about two
